“And” between values parts separate entries of the source, which are not always exact repeats. Equal entries are not always repeated.
How the values were obtained:
Assay type in all cases: cell-based, human
[1] = tested on: HGT-1 cells; assay: Proton secretion assay (intracellular proton index IPX, SNARF-1-AM); conditions: for ΔIPX (change in intracellular proton index vs untreated cells): 10 min incubation in KRHB, n = 4–8; for ΔIPX (change in intracellular proton index vs untreated cells) / ΔIPX on co-incubation with probenecid: mean ± SEM; for proton secretion with peptide alone compared to untreated control cells: VAPFPEVF 17.5 µM, YFYPEL 0.03 µM, YQEPVLGPVRGPFPIIV 0.4 µM, p < 0.01; for proton secretion with peptide alone compared to untreated control cells / ΔIPX on co-incubation with probenecid: 10 min; for concentration with the lowest IPX value (minimum of curve fit; highest impact on secretory activity): curve fit over 0.01–200 µM proton secretion profile; for ΔIPX on co-incubation with probenecid: peptide (VAPFPEVF 17.5 µM, YFYPEL 0.03 µM, YQEPVLGPVRGPFPIIV 0.4 µM) + 1 mM probenecid, vs untreated cells
Protocol: The measurement of proton secretion from HGT-1 cells represents a well-established model for the identification of bitter compounds. By affecting extraoral bitter taste receptors with bitter compounds, a modulatory effect on proton secretion can be measured. For this purpose, cells were washed with KRHB and incubated with 3 μM of the intracellular pH indicator 1,5 carboxy-seminaphto-rhodafluor acetoxymethyl ester (SNARF-1-AM) under standard conditions. After 30 min, the cells were washed again with KRHB and then incubated with casein (0.01–10 μM equimolar related to the relevant forms αS1- and β-casein), hydrolysate (0.01–10 μM), or the peptides (0.01–200 μM). […] All substances were dissolved and diluted in KRHB. 1 mM histamine was used as a positive control. Measurements were performed using FlexStation 3 (Molecular Devices, USA). The excitation wavelength was 488 nm, and the emission wavelengths were 580 and 640 nm. For calibration (pH range 7.0–8.0), the intracellular and extracellular pH was adjusted with 2 μM nigericin in potassium buffer (20 mM NaCl, 110 mM KCl, 1 mM CaCl2, 1 mM MgSO4, 18 mM D-glucose, and 20 mM HEPES). The intracellular proton index (IPX) was calculated as the log2 value of the 580/640 ratio and compared with cells without treatment. Negative values represent increased secretion of protons and therefore stimulation of mechanisms regulating gastric acid secretion in HGT-1 cells. In contrast, positive values represent an inhibition of secretion compared to the untreated control.

[2] = tested on: TAS2R4; assay: RT-qPCR gene expression of TAS2R4 in HGT-1 cells; conditions: VAPFPEVF 17.5 µM, YFYPEL 0.03 µM, YQEPVLGPVRGPFPIIV 0.4 µM, normalized to PPIA and GAPDH and untreated cells, mean, n = 3–5
Protocol: (§1) For mRNA expression analysis, 800,000 cells were seeded in a T25 cell culture flask (25 cm^2) 1 day before the experiment. After incubation with 17.5 μM […], 0.03 μM YFYPEL, or 0.4 μM […] for 15, 30, 60, and 120 min, RNA was isolated using the peqGOLD RNA Kit (VWR Peqlab, USA) following the manufacturer’s protocol. Determination of RNA concentration (A260/A280 between 2.03 and 2.09) was performed on a NanoDrop One^c (Thermo Fisher Scientific Inc., USA). RNA integrity number (RIN 9.9–10.0, version 2.6, assay class Eukaryote Total RNA Nano) was analyzed using a 2100 Bioanalyzer (Agilent Technologies, USA). Removal of gDNA and synthesis of cDNA were performed using the iScript gDNA Clear cDNA Synthesis Kit (BioRad, Feldkirchen, Germany) following the manufacturer’s protocol. Real-time-qPCR (RT-qPCR) was performed with 50 ng cDNA amplified with SsoAdvanced Universal SYBR Green Supermix (Bio-Rad Laboratories, Inc., USA). The sequences of the forward and reverse primers of the 25 TAS2Rs were taken from Liszt et al.([13]) (Supporting Information Table-SI 3). Verified primers for the TAS1Rs (TAS1R1: qHsaCID0013443; TAS1R2: qHsaCID0016106; TAS1R3: qHsaCED0002321) and for MAPK1 (qHsaCEP0050000) were obtained from Bio-Rad Laboratories. PPIA[37] and GAPDH[38] were used as reference genes. The effects of the peptides on gene expression were analyzed in comparison to untreated control cells.

[3] = tested on: TAS2R31; assay: RT-qPCR gene expression of TAS2R31 in HGT-1 cells; conditions: VAPFPEVF 17.5 µM, YFYPEL 0.03 µM, YQEPVLGPVRGPFPIIV 0.4 µM, normalized to PPIA and GAPDH and untreated cells, mean, n = 3–5
Protocol: as §1

[4] = tested on: TAS2R38; assay: RT-qPCR gene expression of TAS2R38 in HGT-1 cells; conditions: VAPFPEVF 17.5 µM, YFYPEL 0.03 µM, YQEPVLGPVRGPFPIIV 0.4 µM, normalized to PPIA and GAPDH and untreated cells, mean, n = 3–5
Protocol: as §1, with “cells. […]” for “cells.”

[5] = tested on: TAS2R41; assay: RT-qPCR gene expression of TAS2R41 in HGT-1 cells; conditions: VAPFPEVF 17.5 µM, YFYPEL 0.03 µM, YQEPVLGPVRGPFPIIV 0.4 µM, normalized to PPIA and GAPDH and untreated cells, mean, n = 3–5
Protocol: as §1

[6] = tested on: TAS2R46; assay: RT-qPCR gene expression of TAS2R46 in HGT-1 cells; conditions: VAPFPEVF 17.5 µM, YFYPEL 0.03 µM, YQEPVLGPVRGPFPIIV 0.4 µM, normalized to PPIA and GAPDH and untreated cells, mean, n = 3–5
Protocol: as §1

[7] = tested on: TAS1R1; assay: RT-qPCR gene expression of TAS1R1 in HGT-1 cells
Protocol: as §1

[8] = 0.1 µM, IPX = log2 of 580/640 ratio, negative = stimulated proton secretion
[9] = 15/30/60/120 min, VAPFPEVF 17.5 µM, YQEPVLGPVRGPFPIIV 0.4 µM, n = 3

Substance | proton secretion with peptide alone compared to untreated control cells [1] | concentration with the lowest IPX value (minimum of curve fit; highest impact on secretory activity) [1] [µM] | ΔIPX on co-incubation with probenecid [1] | change in gene expression of TAS2R4 ([2]; incubation 15 min) [fold change] | change in gene expression of TAS2R4 ([2]; incubation 30 min) [fold change] | change in gene expression of TAS2R4 ([2]; incubation 60 min) [fold change] | change in gene expression of TAS2R4 ([2]; incubation 120 min) [fold change] | change in gene expression of TAS2R31 ([3]; incubation 15 min) [fold change] | change in gene expression of TAS2R31 ([3]; incubation 30 min) [fold change] | change in gene expression of TAS2R31 ([3]; incubation 60 min) [fold change] | change in gene expression of TAS2R31 ([3]; incubation 120 min) [fold change] | change in gene expression of TAS2R38 ([4]; incubation 15 min) [fold change] | change in gene expression of TAS2R38 ([4]; incubation 30 min) | change in gene expression of TAS2R38 ([4]; incubation 60 min) [fold change] | change in gene expression of TAS2R38 ([4]; incubation 120 min) | change in gene expression of TAS2R41 ([5]; incubation 15 min) [fold change] | change in gene expression of TAS2R41 ([5]; incubation 30 min) [fold change] | change in gene expression of TAS2R41 ([5]; incubation 60 min) [fold change] | change in gene expression of TAS2R41 ([5]; incubation 120 min) | change in gene expression of TAS2R46 ([6]; incubation 15 min) [fold change] | further results
YQEPVLGPVRGPFPIIV [bitter casein peptide βA1/A2-CN193–209] | increased proton secretion | 0.4 | −0.020 ± 0.036 | 0.79 | 1.71 | 1.60 | 1.21 | 0.86 | 1.43 | 1.33 | 0.99 | 2.01 | 3.71 fold change | 2.05 | 2.38 fold change | 1.31 | 1.71 | 2.95 | 4.61 fold change and 4.61 ± 2.03 fold change | 0.69 | ΔIPX (change in intracellular proton index vs untreated cells) [1, 8]: −0.203 ± 0.048; change in gene expression of TAS2R46 ([6]; incubation 30 min): 1.73 fold change; change in gene expression of TAS2R46 ([6]; incubation 60 min): 1.30 fold change; change in gene expression of TAS2R46 ([6]; incubation 120 min): 1.06 fold change; change in expression of TAS1R1 [7, 9]: no significant effect
YFYPEL [bitter casein peptide αS1-CN144–149] | increased proton secretion | 0.03 | −0.001 ± 0.019 | 1.24 | 0.81 | 0.92 | 1.13 | 1.65 | 0.91 | 0.96 | 1.09 | 2.96 | 3.40 fold change | 2.39 | 2.91 fold change | 2.82 | 1.56 | 4.58 | 3.00 fold change | 1.70 | ΔIPX (change in intracellular proton index vs untreated cells) [1, 8]: −0.253 ± 0.027; change in gene expression of TAS2R46 ([6]; incubation 30 min): 0.73 fold change; change in gene expression of TAS2R46 ([6]; incubation 60 min): 1.01 fold change; change in gene expression of TAS2R46 ([6]; incubation 120 min): 1.30 fold change; change in expression of TAS1R1 ([7]; 0.03 µM YFYPEL, 30 min, p < 0.001): decrease
VAPFPEVF [bitter casein peptide αS1-CN25–32] | increased proton secretion | 17.5 | +0.043 ± 0.031 | 0.50 | 1.14 | 0.95 | 1.42 | 0.66 | 1.14 | 0.70 | 1.22 | 1.31 | 2.42 fold change and 2.42 ± 0.55 fold change | 1.15 | 2.45 fold change and 2.45 ± 0.26 fold change | 0.95 | 2.32 | 0.98 | 1.90 fold change | 0.62 | ΔIPX (change in intracellular proton index vs untreated cells) ([1]; 10 µM, negative = stimulated, positive = inhibited proton secretion): −0.286 ± 0.037; change in gene expression of TAS2R46 ([6]; incubation 30 min): 1.47 fold change; change in gene expression of TAS2R46 ([6]; incubation 60 min): 0.85 fold change; change in gene expression of TAS2R46 ([6]; incubation 120 min): 1.95 fold change; change in expression of TAS1R1 [7, 9]: no significant effect

Source: paper PMC9501810, “Bitter Peptides YFYPEL, [sequence], and [sequence], Released during Gastric Digestion of Casein, Stimulate Mechanisms of Gastric Acid Secretion via Bitter Taste Receptors TAS2R16 and TAS2R38” (Journal of Agricultural and Food Chemistry, 2022)
